Data taken from US11401255B2, “Small molecule activators of Parkin enzyme function” (Mayo Foundation for Medical Education and Research, priority 2016, dated 2022).

Tests used:
[1] = target: FLAG-Parkin C431S (Homo sapiens (Human), UniProt O60260, C431S); test: Ub-charging of FLAG-Parkin C431S (MSD assay); format: cell-based; details: 5 μM, 2 h before 3.5 μM CCCP
Method: Ubiquitin charging of Parkin was monitored by ELISA-like MesoScale Discovery assay that uses electrochemiluminescence. Plates were coated with Flag antibody and incubated with lysates from 3×FLAG-Parkin C431S cells that had been pretreated for 2 h with 5 μM of Compounds 1, 2, 3, 4, and 31 or DMSO (left, −) before incubating them for another 2 h with (+) or without (−) low-dose (3.5 μM) CCCP. Positive control (PC) cells were treated with 10 μM CCCP. After washing, pS65-Ub antibody was added together with a sulfo-tagged anti-rabbit antibody. Values were normalized to the PC (10 μM CCCP) and negative control (−). Statistical analysis was performed by one-way ANOVA with Tukey's post-hoc test. ****, p<0.0001.
For ELISA assays, 96-well standard bind plates (Mesoscale Discovery) were coated with antibodies (FLAG, Sigma, F3165 or pSer65-Ub, both 1:250) in bicarbonate buffer (15 mM Na2CO3, 35 mM NaHCO3, pH 9.4) overnight and blocked with 5% BSA in TBS containing 0.02% Tween-20 (TBST). For Parkin Ub-charging, cell lysates were prepared in RIPA buffer (50 mM Tris pH 8.0, 150 mM NaCl, 1% NP-40, 0.5% deoxycholate, 0.1% sodium dodecyl sulphate (SDS)). 25 μg of lysates were added to the plates and incubated for 2 h. To quantify pSer65-Ub, cell lysates were prepared in NP-40 buffer (50 mM Tris pH 7.6, 150 mM NaCl, and 0.5% NP-40) and diluted to 0.18% NP-40 with 1% BSA in TBST. 6.25 μg of lysates were added to the plates overnight and incubated at 4° C. After primary antibody incubation, plates were washed and incubated with mouse detection antibodies (Ub, CST, #3933 or Ub, Millipore, MAB 150 both 1:250) for 1 h at RT. Secondary sulfo-tag conjugated antibodies were incubated for 1 h in 1% BSA/TBST before plates were measured in 2× READ buffer using a Mesoscale Discovery Sector Imager 2400 (both Mesoscale Discovery).

[2] = system: HepG2 cells; test: Cytotoxicity assay (resazurin), HepG2 cell proliferation inhibition; format: cell-based; details: Homo sapiens, 24 hours
Method: Compounds 1-4 and 31 were tested in a cytotoxicity assay. The assay was based on the conversion of the non-fluorescent dye resazurin to the fluorescent compound rezorufin in the reducing environment of living cell cytoplasm. The more living cells in a sample result in higher fluorescence, while less living cells result in lower fluorescence.
HepG2 cells were cultivated in a humidified atmosphere at 37° C. and 5% CO2 in 75 cm^2 flasks to 80-90% of confluence and split twice per week with a subcultivation ratio of 1:4. The cell layer was rinsed with PBS to remove all traces of serum. Then 3.0 mL of solution containing 0.25% (w/v) trypsin and 0.53 mM EDTA was added to the flask and incubated about 10 minutes. The HepG2 cells were detached using a scraper and re-suspended in DMEM containing 10% FBS and 2 mM glutamine. The cell suspension with a final concentration of 5×10^5 cells/mL was dispensed into sterile 96-well black wall clear flat bottom plates as previously described (McMillian et al. (2002) Cell Biol. Toxicol. 18(3):157-173; Mulvihill et al. (2009) Future Med. Chem. 1(6):1153-1171) and the test compounds were added.
The compound DMSO stock solutions were diluted with PBS to achieve an intermediate concentration of 1 mM. The cell proliferation assessment was performed at different concentrations of compounds ranging from 0.1 μM to 100 μM. Doxorubicin at a final concentration of 20 μM was used as a positive control. After compound addition, cells were incubated for 24 hours in a humidified atmosphere at 37° C. and 5% CO2.
Resazurin was added to the final concentration (50 μM) and incubated for 4 hours under the same conditions. Presence of rezorufin (cell viability) was quantified by measuring fluorescence (Ex—490 nm, Em—540 nm; see Vega-Avila and Pugsley (2011) Proc. West Pharmacol. Soc. 54:10-14).
The percent of cell proliferation inhibition was calculated by applying the following formula: […]

O=C(Cn1cnc2c1CCCC2)Nc1ccc(-c2ccccc2)cc1 [Compound 1] was tested, and the “Ub-charging of FLAG-Parkin C431S (MSD assay)” value (“Ub-charging” for short) [1] was “enhanced Ub-charging”, the inhibition at 0.1 µM [2] was -0.1% and the inhibition at 0.3 µM [2] was -2%. The inhibition at 1 µM [2] was -0.6%, the inhibition at 3 µM [2] was -1.8% and the inhibition at 10 µM [2] was -3.9%. It also gave an inhibition at 30 µM [2] of -2.5% and an inhibition at 100 µM [2] of 0.1%.
With CC(C)c1nccn1CC(=O)Nc1ccc(-c2ccccc2)cc1 [Compound 2] the “Ub-charging” value [1] was “enhanced Ub-charging”, the inhibition at 0.1 µM [2] was -1.8% and the inhibition at 0.3 µM [2] was 2.8%. For the same compound, the inhibition at 1 µM [2] was 1.2%, the inhibition at 3 µM [2] was 5.6% and the inhibition at 10 µM [2] was 2.6%. For the same compound, the inhibition at 30 µM [2] was 2.4% and the inhibition at 100 µM [2] was 14.7%.
With CC(C)(C)Sc1ccc(NC(=O)Cn2ccnc2)cc1 [Compound 3] the “Ub-charging” value [1] was “enhanced Ub-charging”, the inhibition at 0.1 µM [2] was -2.1% and the inhibition at 0.3 µM [2] was 0.2%. It also gave an inhibition at 1 µM [2] of 2.4%, an inhibition at 3 µM [2] of 3.9% and an inhibition at 10 µM [2] of 2.6%. The inhibition at 30 µM [2] was -0.1% and the inhibition at 100 µM [2] was 0.5%.
For O=C(Cn1ccnc1-c1ccccn1)Nc1ccc(-c2ccccc2)cc1 [Compound 4], the “Ub-charging” value [1] was “enhanced Ub-charging”, the inhibition at 0.1 µM [2] was -1.8% and the inhibition at 0.3 µM [2] was 0.1%. The inhibition at 1 µM [2] was 0.8%, the inhibition at 3 µM [2] was 5.4% and the inhibition at 10 µM [2] was -1.4%. For the same compound, the inhibition at 30 µM [2] was -3.8% and the inhibition at 100 µM [2] was -5.5%.
In the case of Cc1nc2c(c(N3CCCN(Cc4ccccc4)CC3)n1)CCCC2 [Compound 31], the “Ub-charging” value [1] is reported as “enhanced Ub-charging”, the inhibition at 0.1 µM [2] is reported as 2% and the inhibition at 0.3 µM [2] is reported as -0.8%. It also gave an inhibition at 1 µM [2] of -1.5%, an inhibition at 3 µM [2] of -0.9% and an inhibition at 10 µM [2] of -2.2%. It also gave an inhibition at 30 µM [2] of -5.4% and an inhibition at 100 µM [2] of -17.7%.
